Where two headings read alike, the source gives them in different places.
Experiments:
CDK5/CDK5R1 = CDK5/CDK5R1 (Homo sapiens, UniProt Q00535); assay: NanoBRET live-cell target engagement, CDK5-NanoLuc/CDK5R1 in HEK-293; type: binding; details: CDK5/CDK5R1, 10µM
CDK16/Cyclin Y = CDK16/Cyclin Y (Homo sapiens, UniProt Q00536); assay: NanoBRET live-cell target engagement, CDK16-NanoLuc/Cyclin Y in HEK-293; type: binding; details: CDK16/Y, 10µM
CDK8/Cyclin C = CDK8/Cyclin C (Homo sapiens, UniProt P49336); assay: NanoBRET live-cell target engagement, NanoLuc-CDK8/Cyclin C in HEK-293; type: binding; details: CDK8/C, 10µM
CDK19/Cyclin C = CDK19/Cyclin C (Homo sapiens, UniProt Q9BWU1); assay: NanoBRET live-cell target engagement, NanoLuc-CDK19/Cyclin C in HEK-293; details: 10µM
CDK3/Cyclin E1 = CDK3/Cyclin E1 (Homo sapiens, UniProt Q00526); assay: NanoBRET live-cell target engagement, CDK3-NanoLuc/Cyclin E1 in HEK-293; type: binding; details: CDK3/E1, 10µM
CDK13/Cyclin K = CDK13/Cyclin K (Homo sapiens, UniProt Q14004); assay: NanoBRET live-cell target engagement, CDK13-NanoLuc/Cyclin K in HEK-293; type: binding; details: CDK13/K, 10µM
CDK20/Cyclin H = CDK20/Cyclin H (Homo sapiens, UniProt Q8IZL9); assay: NanoBRET live-cell target engagement, NanoLuc-CDK20/Cyclin H in HEK-293; type: binding; details: CDK20/H, 10µM
CDK17/Cyclin Y = CDK17/Cyclin Y (Homo sapiens, UniProt Q00537); assay: NanoBRET live-cell target engagement, CDK17-NanoLuc/Cyclin Y in HEK-293; type: binding; details: CDK17/Y, 10µM
CDK15/Cyclin Y = CDK15/Cyclin Y (Homo sapiens, UniProt Q96Q40); assay: NanoBRET live-cell target engagement, NanoLuc-CDK15/Cyclin Y in HEK-293; type: binding; details: CDK15/Y, 10µM
CDK12/Cyclin K = CDK12/Cyclin K (Homo sapiens, UniProt Q9NYV4); assay: NanoBRET live-cell target engagement, CDK12-NanoLuc/Cyclin K in HEK-293; type: binding; details: CDK12/K, 10µM
CDK7 = CDK7 (Homo sapiens, UniProt P50613); assay: NanoBRET live-cell target engagement, NanoLuc-CDK7 in HEK-293; type: binding; details: CDK7, 10µM
CDK4/Cyclin D1 = CDK4/Cyclin D1 (Homo sapiens, UniProt P11802); assay: NanoBRET live-cell target engagement, NanoLuc-CDK4/Cyclin D1 in HEK-293; type: binding; details: CDK4/D1, 10µM
CDK18/Cyclin Y = CDK18/Cyclin Y (Homo sapiens, UniProt Q07002); assay: NanoBRET live-cell target engagement, CDK18-NanoLuc/Cyclin Y in HEK-293; type: binding
CDK11B/Cyclin L2 = CDK11B/Cyclin L2 (Homo sapiens, UniProt P21127); assay: NanoBRET live-cell target engagement, CDK11B-NanoLuc/Cyclin L2 in HEK-293; type: binding; details: CDK11b/L2, 10µM
CDK9/Cyclin K = CDK9/Cyclin K (Homo sapiens, UniProt P50750); assay: NanoBRET live-cell target engagement, NanoLuc-CDK9/Cyclin K in HEK-293; type: binding; details: CDK9/K, 10µM
CDK10/Cyclin L2 = CDK10/Cyclin L2 (Homo sapiens, UniProt Q15131); assay: NanoBRET live-cell target engagement, CDK10-NanoLuc/Cyclin L2 in HEK-293; details: 10µM
CDK6/Cyclin D1 = CDK6/Cyclin D1 (Homo sapiens, UniProt Q00534); assay: NanoBRET live-cell target engagement, NanoLuc-CDK6/Cyclin D1 in HEK-293; type: binding; details: CDK6/D1, 10µM
[1] = average of replicates, read-out: Inhibition at 10µM (%) Average
[2] = read-out: Inhibition at 10µM (%) Replicate 1
[3] = read-out: Inhibition at 10µM (%) Replicate 2

Chain of CDK4/Cyclin D1 (P11802 whole entry): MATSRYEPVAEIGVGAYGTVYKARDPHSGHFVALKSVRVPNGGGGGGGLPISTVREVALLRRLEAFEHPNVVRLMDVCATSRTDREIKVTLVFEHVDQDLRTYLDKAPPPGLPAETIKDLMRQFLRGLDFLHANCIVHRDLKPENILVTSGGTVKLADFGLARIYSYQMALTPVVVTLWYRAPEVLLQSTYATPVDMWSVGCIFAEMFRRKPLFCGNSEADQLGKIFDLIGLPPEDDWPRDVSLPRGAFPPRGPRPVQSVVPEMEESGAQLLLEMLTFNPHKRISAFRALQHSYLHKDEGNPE
Chain of CDK4/Cyclin D1 (P24385 whole entry partner): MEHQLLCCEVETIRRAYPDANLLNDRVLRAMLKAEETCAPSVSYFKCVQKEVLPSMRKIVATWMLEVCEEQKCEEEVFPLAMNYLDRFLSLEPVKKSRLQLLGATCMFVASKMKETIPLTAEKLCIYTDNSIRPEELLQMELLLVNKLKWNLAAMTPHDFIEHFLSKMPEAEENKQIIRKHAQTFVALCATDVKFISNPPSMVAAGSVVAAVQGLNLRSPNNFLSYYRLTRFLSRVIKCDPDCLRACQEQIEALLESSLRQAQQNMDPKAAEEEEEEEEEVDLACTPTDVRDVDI
Chain of CDK12/Cyclin K (Q9NYV4 1-1481 isoform Q9NYV4-2): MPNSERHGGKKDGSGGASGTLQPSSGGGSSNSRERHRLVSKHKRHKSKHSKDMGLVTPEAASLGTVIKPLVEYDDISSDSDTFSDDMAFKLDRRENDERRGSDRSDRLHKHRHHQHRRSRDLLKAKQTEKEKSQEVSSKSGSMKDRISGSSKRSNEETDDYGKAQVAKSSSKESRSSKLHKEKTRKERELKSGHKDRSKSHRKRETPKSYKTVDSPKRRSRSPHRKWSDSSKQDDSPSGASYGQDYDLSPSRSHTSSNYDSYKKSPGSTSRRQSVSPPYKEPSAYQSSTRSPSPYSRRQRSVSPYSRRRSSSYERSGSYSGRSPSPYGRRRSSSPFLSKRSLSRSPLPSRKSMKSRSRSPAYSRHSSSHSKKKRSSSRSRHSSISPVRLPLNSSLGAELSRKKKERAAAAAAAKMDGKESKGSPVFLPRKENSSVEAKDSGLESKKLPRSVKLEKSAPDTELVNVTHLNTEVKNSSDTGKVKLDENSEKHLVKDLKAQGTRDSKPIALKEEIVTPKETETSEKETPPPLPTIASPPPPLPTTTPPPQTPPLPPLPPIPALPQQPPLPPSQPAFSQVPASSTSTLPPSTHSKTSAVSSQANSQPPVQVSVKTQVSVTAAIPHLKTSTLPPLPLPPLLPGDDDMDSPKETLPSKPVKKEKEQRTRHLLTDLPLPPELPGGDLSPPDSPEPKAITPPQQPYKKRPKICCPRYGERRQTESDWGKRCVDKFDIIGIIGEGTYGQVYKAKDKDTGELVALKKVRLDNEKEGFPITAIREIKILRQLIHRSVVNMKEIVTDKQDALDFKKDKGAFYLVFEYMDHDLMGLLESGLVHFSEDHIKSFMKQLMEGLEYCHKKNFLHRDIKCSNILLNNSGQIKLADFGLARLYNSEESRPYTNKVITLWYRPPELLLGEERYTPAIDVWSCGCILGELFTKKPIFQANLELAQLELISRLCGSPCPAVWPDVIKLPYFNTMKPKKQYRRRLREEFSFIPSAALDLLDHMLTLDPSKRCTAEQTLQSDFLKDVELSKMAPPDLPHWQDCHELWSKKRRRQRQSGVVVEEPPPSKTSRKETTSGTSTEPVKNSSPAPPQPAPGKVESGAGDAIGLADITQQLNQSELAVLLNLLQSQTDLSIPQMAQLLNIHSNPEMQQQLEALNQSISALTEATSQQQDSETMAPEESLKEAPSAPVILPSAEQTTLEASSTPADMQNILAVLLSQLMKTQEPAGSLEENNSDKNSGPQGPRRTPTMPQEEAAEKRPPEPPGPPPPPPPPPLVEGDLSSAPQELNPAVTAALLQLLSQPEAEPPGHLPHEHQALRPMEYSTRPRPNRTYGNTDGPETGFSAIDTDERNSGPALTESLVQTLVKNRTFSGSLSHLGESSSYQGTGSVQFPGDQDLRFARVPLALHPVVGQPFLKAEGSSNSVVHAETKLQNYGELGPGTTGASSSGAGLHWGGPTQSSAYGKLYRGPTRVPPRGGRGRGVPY
Chain of CDK12/Cyclin K (O75909 whole entry partner): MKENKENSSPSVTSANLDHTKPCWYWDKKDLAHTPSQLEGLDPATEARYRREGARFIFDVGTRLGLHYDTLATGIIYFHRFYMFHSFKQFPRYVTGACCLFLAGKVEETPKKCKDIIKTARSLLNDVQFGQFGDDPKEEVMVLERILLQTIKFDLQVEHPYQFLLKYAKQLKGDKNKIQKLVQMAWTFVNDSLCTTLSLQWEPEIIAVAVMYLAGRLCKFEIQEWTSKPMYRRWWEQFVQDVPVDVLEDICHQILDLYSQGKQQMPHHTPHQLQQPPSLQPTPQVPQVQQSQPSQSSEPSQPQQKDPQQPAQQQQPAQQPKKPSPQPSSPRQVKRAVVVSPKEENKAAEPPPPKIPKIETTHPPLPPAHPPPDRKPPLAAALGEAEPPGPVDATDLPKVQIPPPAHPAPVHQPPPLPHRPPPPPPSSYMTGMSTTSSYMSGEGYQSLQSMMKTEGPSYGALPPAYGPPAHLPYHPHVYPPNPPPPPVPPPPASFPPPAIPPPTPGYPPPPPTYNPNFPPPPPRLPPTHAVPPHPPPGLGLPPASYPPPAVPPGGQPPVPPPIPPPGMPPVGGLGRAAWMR
Chain of CDK10/Cyclin L2 (Q15131 whole entry): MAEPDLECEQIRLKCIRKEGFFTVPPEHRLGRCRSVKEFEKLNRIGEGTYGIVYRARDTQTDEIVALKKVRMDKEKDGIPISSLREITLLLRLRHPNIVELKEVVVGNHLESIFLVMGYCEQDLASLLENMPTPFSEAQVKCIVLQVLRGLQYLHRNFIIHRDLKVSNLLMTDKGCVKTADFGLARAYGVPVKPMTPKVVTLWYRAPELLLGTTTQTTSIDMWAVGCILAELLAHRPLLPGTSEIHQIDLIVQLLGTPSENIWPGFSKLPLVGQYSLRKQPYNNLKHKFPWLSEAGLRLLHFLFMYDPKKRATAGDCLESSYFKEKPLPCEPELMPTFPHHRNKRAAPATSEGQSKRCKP
Chain of CDK6/Cyclin D1 (Q00534 whole entry): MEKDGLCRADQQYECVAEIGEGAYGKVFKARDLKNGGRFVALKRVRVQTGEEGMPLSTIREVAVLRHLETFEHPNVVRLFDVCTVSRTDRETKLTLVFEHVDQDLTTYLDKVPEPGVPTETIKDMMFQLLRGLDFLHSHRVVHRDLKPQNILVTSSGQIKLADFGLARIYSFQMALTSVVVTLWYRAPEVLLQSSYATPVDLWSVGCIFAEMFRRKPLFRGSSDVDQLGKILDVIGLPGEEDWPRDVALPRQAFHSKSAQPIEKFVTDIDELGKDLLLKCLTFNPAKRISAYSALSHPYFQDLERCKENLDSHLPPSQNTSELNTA
Chain of CDK6/Cyclin D1 (P24385 whole entry partner): as the sequence (P24385 whole entry partner) above
Chain of CDK11B/Cyclin L2 (P21127 1-782 isoform P21127-2): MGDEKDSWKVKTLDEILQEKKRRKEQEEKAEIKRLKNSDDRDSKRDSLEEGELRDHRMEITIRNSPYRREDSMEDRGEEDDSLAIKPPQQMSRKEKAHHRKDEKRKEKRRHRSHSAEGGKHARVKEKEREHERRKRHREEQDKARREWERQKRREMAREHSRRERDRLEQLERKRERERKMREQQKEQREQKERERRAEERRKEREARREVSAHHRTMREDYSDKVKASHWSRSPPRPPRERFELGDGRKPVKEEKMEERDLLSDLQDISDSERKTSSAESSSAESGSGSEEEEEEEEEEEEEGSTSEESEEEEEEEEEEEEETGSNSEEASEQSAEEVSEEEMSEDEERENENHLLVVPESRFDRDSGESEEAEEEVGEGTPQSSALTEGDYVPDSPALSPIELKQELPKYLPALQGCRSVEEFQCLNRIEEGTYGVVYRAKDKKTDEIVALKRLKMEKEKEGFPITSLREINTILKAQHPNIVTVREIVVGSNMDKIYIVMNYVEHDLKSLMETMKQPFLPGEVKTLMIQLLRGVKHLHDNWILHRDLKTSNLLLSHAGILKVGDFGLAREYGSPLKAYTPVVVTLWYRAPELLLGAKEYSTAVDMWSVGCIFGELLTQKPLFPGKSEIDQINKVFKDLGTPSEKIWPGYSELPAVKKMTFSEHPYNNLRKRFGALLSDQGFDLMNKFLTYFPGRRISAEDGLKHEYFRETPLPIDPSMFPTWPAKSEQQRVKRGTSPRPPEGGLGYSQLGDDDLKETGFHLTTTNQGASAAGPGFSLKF
Chain of CDK5/CDK5R1 (Q00535 whole entry): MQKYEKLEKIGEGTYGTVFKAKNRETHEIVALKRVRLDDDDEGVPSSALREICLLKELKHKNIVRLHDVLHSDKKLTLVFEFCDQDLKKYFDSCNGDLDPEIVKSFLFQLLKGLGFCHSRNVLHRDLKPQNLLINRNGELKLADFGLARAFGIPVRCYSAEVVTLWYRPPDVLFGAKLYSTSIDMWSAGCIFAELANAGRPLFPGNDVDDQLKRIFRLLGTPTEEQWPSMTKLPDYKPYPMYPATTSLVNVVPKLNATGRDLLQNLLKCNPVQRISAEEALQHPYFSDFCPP
Chain of CDK5/CDK5R1 (Q15078 whole entry partner): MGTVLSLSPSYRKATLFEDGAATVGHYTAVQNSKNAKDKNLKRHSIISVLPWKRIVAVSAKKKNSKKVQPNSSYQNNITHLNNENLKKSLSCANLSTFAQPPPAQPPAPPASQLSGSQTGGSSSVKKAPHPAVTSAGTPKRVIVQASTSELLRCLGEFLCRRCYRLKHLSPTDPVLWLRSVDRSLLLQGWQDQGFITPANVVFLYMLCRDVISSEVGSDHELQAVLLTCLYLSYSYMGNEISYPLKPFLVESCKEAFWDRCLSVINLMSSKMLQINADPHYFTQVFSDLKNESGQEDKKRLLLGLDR

CCN1CCN(Cc2ccc(Nc3ncc(F)c(-c4cc(F)c5nc(C)n(C(C)C)c5c4)n3)nc2)CC1 [Abemaciclib]
inhibition at 10 µM (CDK5/CDK5R1; [1]): 40.9% | inhibition at 10 µM (CDK5/CDK5R1; [2]): 38% | inhibition at 10 µM (CDK5/CDK5R1; [3]): 43.8% | inhibition at 10 µM (CDK16/Cyclin Y; [2]): 86.3% | inhibition at 10 µM (CDK16/Cyclin Y; [3]): 85.8% | inhibition at 10 µM (CDK8/Cyclin C; [1]): 35.7% | inhibition at 10 µM (CDK8/Cyclin C; [2]): 27.2% | inhibition at 10 µM (CDK8/Cyclin C; [3]): 44.2% | inhibition at 10 µM (CDK19/Cyclin C; read-out: Inhibition at 10µM (%) Average, CDK19/C, average of replicates): 40.7% | inhibition at 10 µM (CDK19/Cyclin C; read-out: Inhibition at 10µM (%) Replicate 1, CDK19/C): 41.9% | inhibition at 10 µM (CDK19/Cyclin C; read-out: Inhibition at 10µM (%) Replicate 2, CDK19/C): 39.5% | inhibition at 10 µM (CDK3/Cyclin E1; [1]): 62.2% | inhibition at 10 µM (CDK3/Cyclin E1; [2]): 62.2% | inhibition at 10 µM (CDK3/Cyclin E1; [3]): 62.3% | inhibition at 10 µM (CDK13/Cyclin K; [1]): 7.8% | inhibition at 10 µM (CDK13/Cyclin K; [2]): 5.2% | inhibition at 10 µM (CDK13/Cyclin K; [3]): 10.4% | inhibition at 10 µM (CDK20/Cyclin H; [2]): 8.8% | inhibition at 10 µM (CDK20/Cyclin H; [3]): 28.5% | inhibition at 10 µM (CDK17/Cyclin Y; [1]): 83% | inhibition at 10 µM (CDK17/Cyclin Y; [2]): 83% | inhibition at 10 µM (CDK17/Cyclin Y; [3]): 82.9% | inhibition at 10 µM (CDK15/Cyclin Y; [1]): 57.4% | inhibition at 10 µM (CDK15/Cyclin Y; [2]): 57.3% | inhibition at 10 µM (CDK15/Cyclin Y; [3]): 57.5% | inhibition at 10 µM (CDK12/Cyclin K; [1]): 11.6% | inhibition at 10 µM (CDK12/Cyclin K; [2]): 10.3% | inhibition at 10 µM (CDK12/Cyclin K; [3]): 12.8% | inhibition at 10 µM (CDK7; [1]): 63.4% | inhibition at 10 µM (CDK7; [2]): 65.2% | inhibition at 10 µM (CDK7; [3]): 61.7% | inhibition at 10 µM (CDK4/Cyclin D1; [1]): 99.6% | inhibition at 10 µM (CDK4/Cyclin D1; [2]): 100% | inhibition at 10 µM (CDK4/Cyclin D1; [3]): 99% | inhibition at 10 µM (CDK18/Cyclin Y; CDK18/Y, average of replicates, read-out: Inhibition at 10µM (%) Average): 74.8% | inhibition at 10 µM (CDK18/Cyclin Y; CDK18/Y, read-out: Inhibition at 10µM (%) Replicate 1): 73.2% | inhibition at 10 µM (CDK18/Cyclin Y; CDK18/Y, read-out: Inhibition at 10µM (%) Replicate 2): 76.3% | IC50 (CDK18/Cyclin Y; CDK18/Y, read-out: IC50 (nM) Replicate 1): 304 nM | IC50 (CDK18/Cyclin Y; IC50 (nM) Average*, CDK18/Y, n=3 average ± SEM, n=2 average to 2 significant figures): 380 ± 60 nM | IC50 (CDK18/Cyclin Y; IC50 (nM) Replicate 2, CDK18/Y): 350 nM | IC50 (CDK18/Cyclin Y; IC50 (nM) Replicate 3, CDK18/Y): 496 nM | inhibition at 10 µM (CDK11B/Cyclin L2; [1]): 27.7% | inhibition at 10 µM (CDK11B/Cyclin L2; [2]): 27.9% | inhibition at 10 µM (CDK11B/Cyclin L2; [3]): 27.6% | inhibition at 10 µM (CDK9/Cyclin K; [1]): 84.3% | inhibition at 10 µM (CDK9/Cyclin K; [2]): 79.2% | inhibition at 10 µM (CDK9/Cyclin K; [3]): 89.3% | inhibition at 10 µM (CDK10/Cyclin L2; read-out: Inhibition at 10µM (%) Average, CDK10/L2, average of replicates): 20.9% | inhibition at 10 µM (CDK10/Cyclin L2; read-out: Inhibition at 10µM (%) Replicate 1, CDK10/L2): 21.5% | inhibition at 10 µM (CDK10/Cyclin L2; read-out: Inhibition at 10µM (%) Replicate 2, CDK10/L2): 20.2% | inhibition at 10 µM (CDK6/Cyclin D1; [1]): 99.4% | inhibition at 10 µM (CDK6/Cyclin D1; [2]): 99.4% | inhibition at 10 µM (CDK6/Cyclin D1; [3]): 99.4%

Reference: paper PMC7265341, “Quantifying CDK inhibitor selectivity in live cells” (Nature Communications, 2020)
